# Results: PMC6934184, “Selective DNA-PKcs inhibition extends the therapeutic index of localized radiotherapy and chemotherapy” (The Journal of Clinical Investigation, 2019)
# Tested on: Calu-6 subcutaneous xenografts
# Assay: subcutaneous Calu-6 xenograft with tumor-localized irradiation
# Type: in vivo, mouse
# Settings: for mean tumor volume: NU5455 30 mg/kg oral single dose 30 min before 3.3 Gy
# Protocol: Subcutaneous non–small cell lung cancer xenografts were generated in CD-1 nude or BALB/c nude mice using A549 and Calu-6 cells, respectively, as previously described ([53]). When tumors reached 100 mm^3, mice were randomized into 4 groups (n = 7–9 per group) to receive (a) vehicle (orally) 30 minutes before mock radiation, (b) NU5455 (30 mg/kg orally) 30 minutes before mock radiation, (c) targeted tumor radiation at a single dose of 3.3 or 10 Gy, or (d) NU5455 (30 mg/kg orally) 30 minutes before 3.3 Gy or 10 Gy targeted tumor radiation. For targeted irradiation of subcutaneous tumors, anesthetized mice were restrained in a lead-shielded container with only the tumor exposed, and x-ray radiation applied using an RS320 irradiation system (Gulmay Medical) at a dose rate of 1.82 Gy/min.
# Establishment of subcutaneous NSCLC xenograft models
# NSCLC subcutaneous xenografts were generated as previously described ( 53). Briefly, 6-8 week-old female BALB/c nude or CD-1 nude mice (Charles River Laboratories) were anaesthetized with 2% isoflurane (Zoetis), and 5 x 10^6 Calu-6 or A549 cells in 50% Matrigel (BD Biosciences), respectively, were subcutaneously injected into a single site on the back of the mouse. Mouse weights and tumor volumes (1/2 x length x width x depth) were measured three times a week.
# Targeted radiotherapy in subcutaneous and orthotopic NSCLC xenograft models When subcutaneous xenografts reached 100 mm3, mice were randomized into four groups (n = 7 - 11/group): (i) N-Methyl-2-pyrrolidone (NMP): 30% Encapsin : PEG400 (1:6:3 v/v/v) vehicle p.o. 30 minutes prior to mock radiation. (ii) NU5455 (30 mg/kg p.o.) 30 minutes prior to mock radiation. (iii) Targeted tumor radiation at a single dose of 3.3 or 10 Gy. (iv) NU5455 (30 mg/kg p.o.) 30 minutes prior to 3.3 Gy or 10 Gy targeted tumor radiation. For targeted irradiation of subcutaneous tumors, anaesthetized mice were restrained in a lead -shielded container with only the tumor exposed. X -ray radiation was applied using an RS320 irradiation system ( Gulmay Medical) at a dose rate of 1.82 Gy/minute. Three animals from each group were humanely killed at 5 and/or 24 hours after irradiation, and the tumors processed for immunohistochemistry (IHC). […]
# Immunohistochemistry in lung tumor xenografts and normal lung tissue
# Tissues were fixed in 4% paraformaldehyde (PFA) and paraffin -embedded. Sections were stained using primary antibodies against γH2AX (JBW301, 1:1000, Millipore #05-636), 53BP1 (1:500, Cell Signaling #4937), and cleaved caspase 3 (CC3, 1:600, Cell Signaling #9661) and the EnVision G2 Doublestain System (Dako #K5361), according to the manufacturer’s instructions. One tissue section from each of 3 mice per group was examined, and the whole
smiles,measurement,setting,value
CN(C(=O)CN1CCOCC1)c1ccc2sc3c(-c4cccc5c(=O)cc(N6CC7CCC(C6)O7)oc45)cccc3c2c1 [NU5455],adverse effect or impact on body weight,NU5455 30 mg/kg oral + 10 Gy,without any adverse effect or impact on body weight
same,antitumor response,NU5455 30 mg/kg oral + 10 Gy,regression of Calu-6 tumors was induced
same,mean tumor volume,day 0,104 mm^3
same,mean tumor volume,day 6,102 mm^3
same,mice having no evidence of tumor at the end of the experiment,"day 38, NU5455 30 mg/kg oral + 10 Gy",3 of 6
same,"radiation-induced γH2AX foci remaining, fold greater with concomitant NU5455","tumor, 5 hours after 3.3 Gy, 30 mg/kg oral",3.0 fold
